For 30 compounds, Ki and IC50 results are on record in patent publication US9499535B2, “Kinase inhibitors” (ORIGENIS GMBH, priority 2011, dated 2016).

The structures appear in SMILES notation. pIC50, pKi: −log10 of the molar value.

One assay has as its target T1, SYK kinase (Homo sapiens, UniProt P43405).
T1 construct: purchased Invitrogen, Carlsbad
Nature of the assay: SYK assay (OMNIA Kinase Assay, Invitrogen). It counts as biochemical. The conditions noted are these: apparent Ki calculated from the IC50 using the Cheng-Prusoff equation; 1 mM ATP, 10 μM Peptide Substrate; read-out: SYK Activities: Ki. Put shortly:
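Continuous SOX-fluorescence (Omnia) readout of Tyr 7 peptide (10 μM) phosphorylation with 1 mM ATP and 0.2 mM DTT at 30° C, started by SYK addition. Fluorescence (λex 360/λem 485 nm) was read every 30 s for 30 min. IC50 from velocity vs concentration; apparent Ki via Cheng-Prusoff.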

A further assay has as its target MYLK (Homo sapiens, UniProt Q15746). Nature of the assay: MYLK assay (LanthaScreen Eu Kinase Binding Assay). The conditions noted are these: 5 nM MYLK, 30 nM tracer 236, RT 1 h; read-out: MYLK Activites: IC50. The method, then: In the assay LanthaScreen™ Eu Kinase Binding Assay by Invitrogen Corporation (Carlsbad) the effect of invention of a compound on the phosphorylation is determined by measurement of fluorescence intensity emission ratio based on the binding and displacement of a proprietary, Alexa Fluor® 647-labeled, ATP-competitive kinase inhibitor scaffold (kinase tracer) to the kinase of interest as described above.
To the wells of an 384 well small volume plate (Greiner, Frickenhausen) are added (i) the compound under test in 5% DMSO/distilled water (5 μl), (ii) 5 μl of the kinase antibody mixture resulting in a final concentration 5 nM MYLK, 2 nM EU-Anti-GST antibody in 1× kinase buffer A. The reaction was started with addition of (iii) 5 μl resulting in a final concentration of 30 nM tracer 236. The assay plate was incubated at RT for 1 h and fluorescence intensitiy readings were collected using a TECAN M1000 at two wavelengthes of λex 340/λem 615 nm and λex 340/λem 665 nm with a delay time of 100 μs and an integration time of 200 μs after 60 minutes. The emission ratio was calculated by division of the acceptor/tracer emission ([…]) by the antibody/donor emission ([…]). The inhibitor concentration was plotted versus the emission ratio to determine the IC50 using XLFit 5.0 (IDBS, Guildford) to fit to a sigmoidal dose response curve with a variable slope.

For the next assay, the target named is LRRK2 (Homo sapiens, UniProt Q5S007). Kind of assay: LRRK2 assay (LanthaScreen Eu Kinase Binding Assay). The conditions noted are these: 5 nM LRRK2, 10 nM tracer 236, RT 1 h; read-out: LRRK2 Activites: IC50. In a few lines: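 Kinase binding was detected by europium anti-tag antibody FRET with a competing tracer, so inhibitor binding lowers the FRET signal. IC50 came from a variable-slope sigmoidal fit of emission ratio against inhibitor concentration.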
Sequence of LRRK2 (Q5S007 970-2527 limits assumed): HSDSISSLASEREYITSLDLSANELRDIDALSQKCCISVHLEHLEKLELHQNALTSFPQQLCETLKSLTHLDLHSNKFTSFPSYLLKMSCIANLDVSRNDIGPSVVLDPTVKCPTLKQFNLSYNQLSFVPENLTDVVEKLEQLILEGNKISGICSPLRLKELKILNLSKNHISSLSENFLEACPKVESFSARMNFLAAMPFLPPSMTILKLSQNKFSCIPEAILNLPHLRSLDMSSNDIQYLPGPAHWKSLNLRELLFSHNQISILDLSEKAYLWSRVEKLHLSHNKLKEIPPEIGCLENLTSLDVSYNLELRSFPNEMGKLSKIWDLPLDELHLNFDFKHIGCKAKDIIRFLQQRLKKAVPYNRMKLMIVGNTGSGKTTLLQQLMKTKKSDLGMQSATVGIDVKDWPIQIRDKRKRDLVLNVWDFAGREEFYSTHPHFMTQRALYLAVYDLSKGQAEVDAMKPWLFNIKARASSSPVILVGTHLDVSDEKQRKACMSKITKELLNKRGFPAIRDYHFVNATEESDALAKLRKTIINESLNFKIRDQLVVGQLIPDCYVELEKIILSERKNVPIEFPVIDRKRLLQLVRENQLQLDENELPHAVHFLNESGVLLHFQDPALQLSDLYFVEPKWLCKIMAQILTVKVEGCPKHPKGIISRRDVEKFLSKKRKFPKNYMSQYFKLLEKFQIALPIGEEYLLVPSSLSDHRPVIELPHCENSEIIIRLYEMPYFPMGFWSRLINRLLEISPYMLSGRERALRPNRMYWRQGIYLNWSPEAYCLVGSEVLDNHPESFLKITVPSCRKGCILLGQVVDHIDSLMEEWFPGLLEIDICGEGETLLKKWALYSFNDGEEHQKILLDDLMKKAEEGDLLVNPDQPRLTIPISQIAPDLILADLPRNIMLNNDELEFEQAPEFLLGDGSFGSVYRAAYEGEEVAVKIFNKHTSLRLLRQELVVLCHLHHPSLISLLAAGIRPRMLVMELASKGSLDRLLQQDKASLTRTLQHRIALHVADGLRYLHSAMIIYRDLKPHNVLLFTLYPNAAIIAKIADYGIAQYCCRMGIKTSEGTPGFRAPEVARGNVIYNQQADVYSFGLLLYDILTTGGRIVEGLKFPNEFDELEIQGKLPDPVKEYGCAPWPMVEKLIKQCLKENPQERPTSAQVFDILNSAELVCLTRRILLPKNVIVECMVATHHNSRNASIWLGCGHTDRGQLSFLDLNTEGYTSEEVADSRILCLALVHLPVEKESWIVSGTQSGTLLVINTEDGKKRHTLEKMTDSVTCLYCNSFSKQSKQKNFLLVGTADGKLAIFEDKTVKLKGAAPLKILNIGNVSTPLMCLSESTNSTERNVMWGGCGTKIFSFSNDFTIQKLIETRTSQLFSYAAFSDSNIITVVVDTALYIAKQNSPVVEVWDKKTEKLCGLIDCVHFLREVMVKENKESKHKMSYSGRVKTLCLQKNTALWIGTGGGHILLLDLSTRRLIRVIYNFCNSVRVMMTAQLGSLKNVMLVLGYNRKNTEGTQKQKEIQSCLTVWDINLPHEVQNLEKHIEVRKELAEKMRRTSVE

Sequence of MYLK (Q15746 whole entry): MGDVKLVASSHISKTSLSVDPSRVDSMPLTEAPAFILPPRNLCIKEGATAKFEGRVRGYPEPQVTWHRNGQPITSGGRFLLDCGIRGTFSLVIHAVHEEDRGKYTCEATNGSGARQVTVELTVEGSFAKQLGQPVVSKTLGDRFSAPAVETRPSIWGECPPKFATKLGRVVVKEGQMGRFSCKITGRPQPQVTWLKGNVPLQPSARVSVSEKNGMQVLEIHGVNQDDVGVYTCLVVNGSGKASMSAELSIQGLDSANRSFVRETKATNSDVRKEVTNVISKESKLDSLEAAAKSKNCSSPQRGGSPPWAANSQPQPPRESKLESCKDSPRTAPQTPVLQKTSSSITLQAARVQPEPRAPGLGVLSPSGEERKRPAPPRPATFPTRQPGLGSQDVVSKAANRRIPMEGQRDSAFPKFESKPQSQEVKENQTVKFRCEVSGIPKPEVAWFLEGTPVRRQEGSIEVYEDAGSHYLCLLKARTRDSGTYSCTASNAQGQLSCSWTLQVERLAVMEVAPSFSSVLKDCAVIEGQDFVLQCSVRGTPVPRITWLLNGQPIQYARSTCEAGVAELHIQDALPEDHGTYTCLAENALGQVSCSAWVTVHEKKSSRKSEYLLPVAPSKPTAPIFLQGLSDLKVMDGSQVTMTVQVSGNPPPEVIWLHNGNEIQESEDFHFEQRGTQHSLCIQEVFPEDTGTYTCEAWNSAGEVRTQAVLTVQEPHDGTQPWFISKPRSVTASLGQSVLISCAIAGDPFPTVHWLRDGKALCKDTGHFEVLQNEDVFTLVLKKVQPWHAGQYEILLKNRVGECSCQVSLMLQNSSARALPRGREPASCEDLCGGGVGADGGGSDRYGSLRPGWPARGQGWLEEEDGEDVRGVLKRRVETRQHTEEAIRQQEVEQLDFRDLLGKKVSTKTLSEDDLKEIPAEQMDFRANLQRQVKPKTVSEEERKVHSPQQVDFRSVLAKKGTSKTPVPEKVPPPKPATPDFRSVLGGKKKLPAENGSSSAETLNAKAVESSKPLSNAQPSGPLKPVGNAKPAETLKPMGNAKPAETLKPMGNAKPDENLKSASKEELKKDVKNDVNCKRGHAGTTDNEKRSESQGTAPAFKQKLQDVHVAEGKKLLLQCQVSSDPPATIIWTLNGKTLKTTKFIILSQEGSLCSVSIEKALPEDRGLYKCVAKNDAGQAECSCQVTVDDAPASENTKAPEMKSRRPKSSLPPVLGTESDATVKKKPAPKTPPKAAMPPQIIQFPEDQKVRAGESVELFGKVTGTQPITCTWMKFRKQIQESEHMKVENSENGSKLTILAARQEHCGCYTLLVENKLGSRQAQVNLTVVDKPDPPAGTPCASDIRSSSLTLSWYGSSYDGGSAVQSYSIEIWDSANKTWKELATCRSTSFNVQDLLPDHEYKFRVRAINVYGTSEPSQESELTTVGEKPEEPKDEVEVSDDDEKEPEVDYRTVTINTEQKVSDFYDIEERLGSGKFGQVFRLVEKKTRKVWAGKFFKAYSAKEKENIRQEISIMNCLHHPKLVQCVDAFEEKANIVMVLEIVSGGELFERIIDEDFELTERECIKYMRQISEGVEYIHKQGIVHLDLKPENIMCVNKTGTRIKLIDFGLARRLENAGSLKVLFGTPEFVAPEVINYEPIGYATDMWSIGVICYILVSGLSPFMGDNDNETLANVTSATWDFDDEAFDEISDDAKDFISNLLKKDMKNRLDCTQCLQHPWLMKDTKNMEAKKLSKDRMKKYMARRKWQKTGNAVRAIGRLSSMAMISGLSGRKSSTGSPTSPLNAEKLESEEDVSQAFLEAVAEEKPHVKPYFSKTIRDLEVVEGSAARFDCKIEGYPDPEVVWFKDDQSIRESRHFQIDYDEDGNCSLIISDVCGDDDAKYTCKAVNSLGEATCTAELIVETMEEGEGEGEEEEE

Regarding `Cc1cc(Nc2nc3ccc(Br)cc3c3c[nH]nc23)cc2cn[nH]c12` [Example #41, (8-Bromo-2H-pyrazolo[3,4-c]quinolin-4-yl)-(7-methyl-1H-indazol-5-yl)-amine], at SYK kinase, the negative logarithm of the Ki (pKi) is 7.00 to 8.00. Besides, the negative-log IC50 (pIC50) on MYLK is above 5.30.

As to `COc1ccc2nc(Nc3ccc(C(N)=O)cc3)c3n[nH]cc3c2c1` [Example #58, 4-(8-Methoxy-2H-pyrazolo[3,4-c]quinolin-4-ylamino)-benzamide], the pKi at SYK kinase was 7.00 to 8.00. The negative-log IC50 (pIC50) on MYLK was above 5.30.

On to `O=C1COc2ccc(Nc3nc4ccc(Br)cc4c4c[nH]nc34)cc2N1` [Example #116, 6-(8-Bromo-2H-pyrazolo[3,4-c]quinolin-4-ylamino)-4H-benzo[1,4]oxazin-3-one], for which, at MYLK, the pIC50 was above 5.30.

For `COc1ccc2nc(Nc3nccc(N)n3)c3n[nH]cc3c2c1` [Example #139, N2-(8-methoxy-2H-pyrazolo[3,4-c]quinolin-4-yl)pyrimidine-2,4-diamine], the pKi on SYK kinase was 6.00 to 7.00. Besides, the pIC50 on MYLK was above 5.30.

For the compound `COc1ccc2nc(Nc3ccc4ncc(=O)[nH]c4c3)c3n[nH]cc3c2c1` [Example #194, 7-(8-Methoxy-2H-pyrazolo[3,4-c]quinolin-4-ylamino)-1H-quinoxalin-2-one], the negative-log Ki (pKi) on SYK kinase is 6.00 to 7.00. For the same compound, the pIC50 at MYLK is above 5.30.

Take `COc1cccc2c1nc(Nc1ccc(CN(C)C)cc1)c1n[nH]cc12` [Example #233, (4-Dimethylaminomethyl-phenyl)-(6-methoxy-2H-pyrazolo[3,4-c]quinolin-4-yl)-amine]: the pKi at SYK kinase is above 8.00. Moreover, on MYLK, the pIC50 was above 5.30.

With `COc1cccc2c1nc(Nc1ccccc1)c1n[nH]cc12` [Example #261, (6-Methoxy-2H-pyrazolo[3,4-c]quinolin-4-yl)-phenyl-amine], at SYK kinase, the negative-log Ki (pKi) is 7.00 to 8.00. Also, the negative-log IC50 (pIC50) on MYLK is above 5.30.

Regarding `COc1ccc2c(c1)nc(Nc1ccc3[nH]cnc3c1)c1n[nH]cc12` [Example #263, (1H-Benzoimidazol-5-yl)-(7-methoxy-2H-pyrazolo[3,4-c]quinolin-4-yl)-amine], at SYK kinase, the negative-log Ki (pKi) is above 8.00. At MYLK, the negative logarithm of the IC50 (pIC50) was above 5.30.

Turning to `COc1cccc2c1nc(Nc1ccc(CN3CCN(C)CC3)cc1)c1n[nH]cc12` [Example #278, (6-Methoxy-2H-pyrazolo[3,4-c]quinolin-4-yl)-[4-(4-methyl-piperazin-1-ylmethyl)-phenyl]-amine], on SYK kinase, the pKi was 6.00 to 7.00. Besides, at MYLK, the pIC50 was above 5.30.

For the compound `COc1ccc2nc(Nc3cccc(C(=O)O)c3)c3n[nH]cc3c2c1` [Example #287, 3-((8-methoxy-2H-pyrazolo[3,4-c]quinolin-4-yl)amino)benzoic acid], the pKi at SYK kinase was 6.00 to 7.00. Besides, the pIC50 on MYLK is above 5.30.

`COc1ccc2nc(Nc3ccc4c(c3)NC(=O)CO4)c3[nH]ncc3c2c1` [Example #291, 6-((8-methoxy-2H-pyrazolo[3,4-c]quinolin-4-yl)amino)-2H-benzo[b][1,4]oxazin-3(4H)-one]: the pKi on SYK kinase is above 8.00. Further, the pIC50 on MYLK was above 5.30.

In the case of `COc1ccc2nc(Nc3ccc(N4CCS(=O)(=O)CC4)cc3)c3n[nH]cc3c2c1` [Example #292, 4-(4-((8-methoxy-2H-pyrazolo[3,4-c]quinolin-4-yl)amino)phenyl)thiomorpholine 1,1-dioxide], the pKi at SYK kinase is above 8.00. Also, the pIC50 at MYLK was above 5.30.

In the case of `O=C(c1ccc(Nc2nc3ccc(F)cc3c3cn[nH]c23)cc1)N1CCCC1` [Example #322, (4-((8-fluoro-3H-pyrazolo[3,4-c]quinolin-4-yl)amino)phenyl) (pyrrolidin-1-yl)methanone], at MYLK, the pIC50 was above 5.30.

`Fc1ccc2nc(Nc3ccc(N4CCOCC4)cc3)c3[nH]ncc3c2c1` [Example #325, 8-fluoro-N-(4-morpholinophenyl)-3H-pyrazolo[3,4-c]quinolin-4-amine]: at SYK kinase, the pKi is 7.00 to 8.00. Besides, at LRRK2, the pIC50 was 6.00 to 7.00.

In the case of `CN1CCN(c2ccc(Nc3nc4ccc(F)cc4c4cn[nH]c34)cc2)CC1` [Example #326, 8-fluoro-N-(4-(4-methylpiperazin-1-yl)phenyl)-3H-pyrazolo[3,4-c]quinolin-4-amine], the pKi on SYK kinase was 7.00 to 8.00. Further, the pIC50 at MYLK was above 5.30.

Take `COc1ccc(Nc2nc3ccc(F)cc3c3cn[nH]c23)cc1OC` [Example #327, N-(3,4-dimethoxyphenyl)-8-fluoro-3H-pyrazolo[3,4-c]quinolin-4-amine]: on SYK kinase, the pKi was 6.00 to 7.00. The pIC50 at MYLK was above 5.30.

Turning to `COc1ccc2nc(Nc3ccc(OC(F)F)c(OC)c3)c3n[nH]cc3c2c1` [Example #328, N-(4-(difluoromethoxy)-3-methoxyphenyl)-8-methoxy-2H-pyrazolo[3,4-c]quinolin-4-amine], at SYK kinase, the pKi is 6.00 to 7.00. Also, the pIC50 on LRRK2 is 6.00 to 7.00.

As for `CN1CCN(c2ccc(Nc3nc4cc(F)ccc4c4cn[nH]c34)cc2)CC1` [Example #337, 7-fluoro-N-(4-(4-methylpiperazin-1-yl)phenyl)-3H-pyrazolo[3,4-c]quinolin-4-amine], on SYK kinase, the pKi was 7.00 to 8.00. The pIC50 on MYLK was above 5.30.

`COc1cc(Nc2nc3ccc(OC)cc3c3c[nH]nc23)cc(OC)c1` [Example #341, N-(3,5-dimethoxyphenyl)-8-methoxy-2H-pyrazolo[3,4-c]quinolin-4-amine]: the pKi at SYK kinase is 6.00 to 7.00. Further, the pIC50 at MYLK is above 5.30.

As to `COc1ccc2nc(Nc3ccc(S(=O)(=O)N(C)C)cc3)c3n[nH]cc3c2c1` [Example #343, 4-((8-methoxy-2H-pyrazolo[3,4-c]quinolin-4-yl)amino)-N,N-dimethylbenzenesulfonamide], the pKi on SYK kinase was 7.00 to 8.00. Further, the pIC50 at LRRK2 is 6.00 to 7.00.

`COc1ccc2nc(Nc3cccc(S(=O)(=O)NC4CC4)c3)c3n[nH]cc3c2c1` [Example #344, N-cyclopropyl-3-((8-methoxy-2H-pyrazolo[3,4-c]quinolin-4-yl)amino)benzenesulfonamide]: at SYK kinase, the pKi is 7.00 to 8.00. Also, the pIC50 on LRRK2 was 7.00 to 8.00.

Turning to `COc1ccc2nc(Nc3cccc(S(=O)(=O)N4CCOCC4)c3)c3n[nH]cc3c2c1` [Example #349, 8-methoxy-N-(3-(morpholinosulfonyl)phenyl)-2H-pyrazolo[3,4-c]quinolin-4-amine], the pKi at SYK kinase is 6.00 to 7.00. For the same compound, the pIC50 at MYLK is above 5.30.

Regarding `COc1ccc2nc(Nc3cccc(S(=O)(=O)CCO)c3)c3n[nH]cc3c2c1` [Example #351, 2-((3-((8-methoxy-2H-pyrazolo[3,4-c]quinolin-4-yl)amino)phenyl)sulfonyl)ethan-1-ol], at SYK kinase, the pKi was 6.00 to 7.00. Besides, the negative-log IC50 (pIC50) at LRRK2 is 6.00 to 7.00.

Take `Ic1ccc2nc(Nc3ccc(N4CCOCC4)cc3)c3[nH]ncc3c2c1` [Example #355, 8-iodo-N-(4-morpholinophenyl)-3H-pyrazolo[3,4-c]quinolin-4-amine]: at SYK kinase, the pKi was 7.00 to 8.00. For the same compound, on LRRK2, the pIC50 is 6.00 to 7.00.

`O=C(c1ccc(Nc2nc3ccc(I)cc3c3cn[nH]c23)cc1)N1CCCC1` [Example #356, (4-((8-iodo-3H-pyrazolo[3,4-c]quinolin-4-yl)amino)phenyl)(pyrrolidin-1-yl)methanone]: on SYK kinase, the pKi is 6.00 to 7.00. Further, the pIC50 on LRRK2 was 6.00 to 7.00.

In the case of `CC(=O)N1CCN(c2ccc(Nc3nc4ccc(I)cc4c4cn[nH]c34)cc2)CC1` [Example #357, 1-(4-(4-((8-iodo-3H-pyrazolo[3,4-c]quinolin-4-yl)amino)phenyl)piperazin-1-yl)ethan-1-one], the negative-log Ki (pKi) at SYK kinase was 7.00 to 8.00. Also, the pIC50 on LRRK2 was 6.00 to 7.00.

For `COc1ccc2nc(Nc3ccc(F)cc3F)c3n[nH]cc3c2c1` [Example #360, N-(2,4-difluorophenyl)-8-methoxy-2H-pyrazolo[3,4-c]quinolin-4-amine], at MYLK, the negative logarithm of the IC50 (pIC50) is above 5.30.

Regarding `COc1ccc(Nc2nc3cccc(F)c3c3cn[nH]c23)cc1OC` [Example #361, N-(3,4-dimethoxyphenyl)-9-fluoro-3H-pyrazolo[3,4-c]quinolin-4-amine], the pKi on SYK kinase was 6.00 to 7.00. Further, at LRRK2, the pIC50 was 6.00 to 7.00.

As to `CS(=O)(=O)c1cccc(Nc2nc3cccc(F)c3c3cn[nH]c23)c1` [Example #362, 9-fluoro-N-(3-(methylsulfonyl)phenyl)-3H-pyrazolo[3,4-c]quinolin-4-amine], the pKi on SYK kinase was above 8.00. Besides, at LRRK2, the pIC50 was 6.00 to 7.00.

Regarding `CN1CCN(C2CCN(c3ccc(Nc4nc5cccc(F)c5c5cn[nH]c45)cc3)CC2)CC1` [Example #363, 9-fluoro-N-(4-(4-(4-methylpiperazin-1-yl)piperidin-1-yl)phenyl)-3H-pyrazolo[3,4-c]quinolin-4-amine], the pKi on SYK kinase is 7.00 to 8.00. Further, the pIC50 on LRRK2 is 7.00 to 8.00.
